Data on 26 molecules can be found in patent US20260374782A1, “NEW COMPOUNDS, PROCESSES FOR PREPARING THE SAME AND THEIR USE AS DRUGS” (B&A ONCOMEDICAL, priority 2022, published 2026).

The inhibition is how much of the control response was suppressed.

The test deals with T1, NKCC1 (Homo sapiens, UniProt P55011).
T1 construct: endogenous in cells; host or cells: native HEK293 cells
T1 sequence (P55011 1-1212): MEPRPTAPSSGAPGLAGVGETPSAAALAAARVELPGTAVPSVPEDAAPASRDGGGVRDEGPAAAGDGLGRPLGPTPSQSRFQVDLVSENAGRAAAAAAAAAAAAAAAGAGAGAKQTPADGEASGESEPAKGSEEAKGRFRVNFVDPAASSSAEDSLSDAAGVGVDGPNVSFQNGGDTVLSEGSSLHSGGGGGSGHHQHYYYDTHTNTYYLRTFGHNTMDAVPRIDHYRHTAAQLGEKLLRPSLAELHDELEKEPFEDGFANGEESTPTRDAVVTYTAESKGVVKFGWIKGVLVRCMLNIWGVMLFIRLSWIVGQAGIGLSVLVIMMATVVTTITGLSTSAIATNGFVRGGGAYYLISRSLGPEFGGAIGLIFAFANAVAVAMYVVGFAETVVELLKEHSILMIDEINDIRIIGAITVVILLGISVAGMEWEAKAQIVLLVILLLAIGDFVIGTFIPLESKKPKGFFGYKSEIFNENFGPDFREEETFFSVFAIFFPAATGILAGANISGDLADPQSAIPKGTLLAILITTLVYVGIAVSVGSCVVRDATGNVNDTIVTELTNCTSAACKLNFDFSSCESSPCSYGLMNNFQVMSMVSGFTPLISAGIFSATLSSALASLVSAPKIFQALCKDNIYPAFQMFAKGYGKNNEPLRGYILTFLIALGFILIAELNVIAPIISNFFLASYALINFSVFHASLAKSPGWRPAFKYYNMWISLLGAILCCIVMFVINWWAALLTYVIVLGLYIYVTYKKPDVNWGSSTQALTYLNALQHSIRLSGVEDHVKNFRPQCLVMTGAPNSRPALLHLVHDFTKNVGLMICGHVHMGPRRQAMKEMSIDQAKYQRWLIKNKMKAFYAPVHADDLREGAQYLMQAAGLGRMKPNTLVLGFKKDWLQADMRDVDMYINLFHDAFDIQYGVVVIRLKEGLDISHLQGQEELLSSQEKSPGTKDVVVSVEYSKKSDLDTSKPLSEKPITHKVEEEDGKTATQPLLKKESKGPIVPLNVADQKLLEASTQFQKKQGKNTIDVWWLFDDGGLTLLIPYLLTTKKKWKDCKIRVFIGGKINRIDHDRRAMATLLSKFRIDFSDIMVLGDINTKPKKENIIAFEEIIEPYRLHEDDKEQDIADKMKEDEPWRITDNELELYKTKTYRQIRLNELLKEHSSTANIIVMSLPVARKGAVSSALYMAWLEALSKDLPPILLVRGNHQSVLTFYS
The test is described as follows: NKCC1-mediated K+ influx (83Rb tracer uptake) in native HEK293 cells, hypertonic saline, 100 μM ouabain. The conditions noted are these: HEK293, no drug = 1000, 20 μM bumetanide = 0; for inhibition at 2 µM: read-out: NKCC1 mediated flux inhibition at 2 μM (%); for inhibition at 20 µM: read-out: NKCC1 mediated flux inhibition at 20 μM (%). Format: cell-based. The method in brief: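 Native cells in slightly hypertonic saline with 100 μM ouabain; 15 min preincubation then 15 min 83Rb uptake (0.25 μCi/mL), scintillation counting normalized to protein. Compounds at 2 μM and 20 μM; flux scaled 1000 (no drug) to 0 (20 μM bumetanide), triplicate dishes.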

As for `CCCCNc1cc(C(=O)O)cc(S(=N)(=O)Nc2ccn(C)n2)c1Oc1ccccc1` (centres unmarked) [Compound 67, 3-(butylamino)-5-[[(1-methylpyrazol-3-yl)amino]sulfonimidoyl]-4-phenoxy-benzoic acid], the inhibition at 2 µM was 50 to 75% and the inhibition at 20 µM is no less than 75%. For the molecule `CCCCNc1cc(C(=O)O)cc(S(=N)(=O)NCc2cncnc2)c1Oc1ccccc1` (centres unmarked) [Compound 68, 3-(butylamino)-4-phenoxy-5-[(pyrimidin-5-ylmethylamino)sulfonimidoyl]benzoic acid], the inhibition at 2 µM was 50 to 75% and the inhibition at 20 µM was no less than 75%. The like results for `CCCCNc1cc(C(=O)O)cc(S(=N)(=O)N2CC3CCC(C2)O3)c1Oc1ccccc1` (centres unmarked) [Compound 69, 3-(butylamino)-5-(8-oxa-3-azabicyclo[3.2.1]octan-3-ylsulfonimidoyl)-4-phenoxy-benzoic acid] were, in that order, 50 to 75% and 50 to 75%. Take `CCCCNc1cc(C(=O)O)cc(S(=N)(=O)Nc2cccc(Cl)c2)c1Oc1ccccc1` (centres unmarked) [Compound 70, 3-(butylamino)-5-[(3-chloroanilino)sulfonimidoyl]-4-phenoxy-benzoic acid]: the inhibition at 2 µM is no less than 75% and the inhibition at 20 µM is no less than 75%.

As for `CCCCNc1cc(C(=O)O)cc(S(=N)(=O)NCc2cccc(Cl)c2)c1Oc1ccccc1` (centres unmarked) [Compound 71, 3-(butylamino)-5-[[(3-chlorophenyl)methylamino]sulfonimidoyl]-4-phenoxy-benzoic acid], the inhibition at 2 µM is no less than 75% and the inhibition at 20 µM was no less than 75%. For the molecule `CCCCNc1cc(C(=O)O)cc(S(=N)(=O)N2Cc3ccccc3C2)c1Oc1ccccc1` (centres unmarked) [Compound 72, 3-(butylamino)-5-(isoindolin-2-ylsulfonimidoyl)-4-phenoxy-benzoic acid], the inhibition at 2 µM lay within 50 to 75% and the inhibition at 20 µM is no less than 75%. The like results for `CCCCNc1cc(C(=O)O)cc(S(=N)(=O)Nc2cnccn2)c1Oc1ccccc1` (centres unmarked) [Compound 73, 3-(butylamino)-4-phenoxy-5-[(pyrazin-2-ylamino)sulfonimidoyl]benzoic acid] were, in that order, no less than 75% and no less than 75%.

For the molecule `CCCCNc1cc(C(=O)O)cc(S(=N)(=O)Nc2cccc(OC(F)F)c2)c1Oc1ccccc1` (centres unmarked) [Compound 74, 3-(butylamino)-5-[[3-(difluoromethoxy)anilino]sulfonimidoyl]-4-phenoxy-benzoic acid], the inhibition at 2 µM was in the range of 50 to 75% and the inhibition at 20 µM is no less than 75%. With `CCCCNc1cc(C(=O)O)cc(S(=N)(=O)NC2CCOCC2)c1Oc1ccccc1` (centres unmarked) [Compound 75, 3-(butylamino)-4-phenoxy-5-[(tetrahydropyran-4-ylamino)sulfonimidoyl]benzoic acid], the inhibition at 20 µM is 30 to 50%. For `CCCCNc1cc(C(=O)O)cc(S(=N)(=O)Nc2ncccn2)c1Oc1ccccc1` (centres unmarked) [Compound 76, 3-(butylamino)-4-phenoxy-5-[(pyrimidin-2-ylamino)sulfonimidoyl]benzoic acid], the inhibition at 2 µM lay in the range of 10 to 30% and the inhibition at 20 µM was 50 to 75%.

Take `CCCCNc1cc(C(=O)O)cc(S(=N)(=O)Nc2ccccc2Cl)c1Oc1ccccc1` (centres unmarked) [Compound 77, 3-(butylamino)-5-[(2-chloroanilino)sulfonimidoyl]-4-phenoxy-benzoic acid]: the inhibition at 2 µM was in the range of 30 to 50% and the inhibition at 20 µM is no less than 75%.

Turning to `CCCCNc1cc(C(=O)O)cc(S(=N)(=O)Nc2ccc(Cl)cc2)c1Oc1ccccc1` (centres unmarked) [Compound 78, 3-(butylamino)-5-[(4-chloroanilino)sulfonimidoyl]-4-phenoxy-benzoic acid], the inhibition at 2 µM lay in the range of 50 to 75% and the inhibition at 20 µM was no less than 75%. The like results for `CCCCNc1cc(C(=O)O)cc(S(=N)(=O)NC2CCN(C)CC2)c1Oc1ccccc1` (centres unmarked) [Compound 79, 3-(butylamino)-5-[[(1-methyl-4-piperidyl)amino]sulfonimidoyl]-4-phenoxy-benzoic acid] were, in that order, 30 to 50% and 50 to 75%. Regarding `CCCCNc1cc(C(=O)O)cc(S(=N)(=O)Nc2cncnc2)c1Oc1ccccc1` (centres unmarked) [Compound 80, 3-(butylamino)-4-phenoxy-5-[(pyrimidin-5-ylamino)sulfonimidoyl]benzoic acid], the inhibition at 2 µM fell in the range of 30 to 50% and the inhibition at 20 µM is no less than 75%. As to `CCCCNc1cc(C(=O)O)cc(S(=N)(=O)NCCc2ccccc2)c1Oc1ccccc1` (centres unmarked) [Compound 81, 3-(butylamino)-4-phenoxy-5-[(2-phenylethylamino)sulfonimidoyl]benzoic acid], the inhibition at 2 µM lay within 30 to 50% and the inhibition at 20 µM was no less than 75%. On to `CCCCNc1cc(C(=O)O)cc(S(=N)(=O)NCCc2cccc(Cl)c2)c1Oc1ccccc1` (centres unmarked) [Compound 82, 3-(butylamino)-5-[[2-(3-chlorophenyl)ethylamino]sulfonimidoyl]-4-phenoxy-benzoic acid], for which the inhibition at 2 µM lay in the range of 10 to 30% and the inhibition at 20 µM was no less than 75%. The like results for `CCCCNc1cc(C(=O)O)cc(S(=N)(=O)NCc2cccnc2)c1Oc1ccccc1` (centres unmarked) [Compound 83, 3-(butylamino)-4-phenoxy-5-[(3-pyridylmethylamino)sulfonimidoyl]benzoic acid] were, in that order, 30 to 50% and no less than 75%.

In the case of `CCCCNc1cc(C(=O)O)cc(S(=N)(=O)NCCc2cccnc2)c1Oc1ccccc1` (centres unmarked) [Compound 84, 3-(butylamino)-4-phenoxy-5-[[2-(3-pyridyl)ethylamino]sulfonimidoyl]benzoic acid], the inhibition at 2 µM is 10 to 30% and the inhibition at 20 µM was no less than 75%. Taken in the same sequence, the figures for `CCCCNc1cc(C(=O)O)cc(S(=N)(=O)NCc2nccs2)c1Oc1ccccc1` (centres unmarked) [Compound 85, 3-(butylamino)-4-phenoxy-5-[(thiazol-2-ylmethylamino)sulfonimidoyl]benzoic acid] were 30 to 50% and no less than 75%. On to `CCCCNc1cc(C(=O)O)cc(S(=N)(=O)NCCc2nccs2)c1Oc1ccccc1` (centres unmarked) [Compound 86, 3-(butylamino)-4-phenoxy-5-[(2-thiazol-2-ylethylamino)sulfonimidoyl]benzoic acid], for which the inhibition at 2 µM fell in the range of 50 to 75% and the inhibition at 20 µM was no less than 75%. With `CCCCNc1cc(C(=O)O)cc(S(=N)(=O)NCc2ccn(C)n2)c1Oc1ccccc1` (centres unmarked) [Compound 87, 3-(butylamino)-5-[[(1-methylpyrazol-3-yl)methylamino]sulfonimidoyl]-4-phenoxy-benzoic acid], the inhibition at 2 µM was 50 to 75% and the inhibition at 20 µM is no less than 75%. Turning to `CCCCNc1cc(C(=O)O)cc(S(=N)(=O)Nc2nccn2C)c1Oc1ccccc1` (centres unmarked) [Compound 88, 3-(butylamino)-5-[[(1-methylimidazol-2-yl)amino]sulfonimidoyl]-4-phenoxy-benzoic acid], the inhibition at 20 µM lay in the range of 50 to 75%. As for `CCCCNc1cc(C(=O)O)cc(S(=N)(=O)Nc2ccccn2)c1Oc1ccccc1` (centres unmarked) [Compound 89, 3-(butylamino)-4-phenoxy-5-[(2-pyridylamino)sulfonimidoyl]benzoic acid], the inhibition at 2 µM was in the range of 30 to 50% and the inhibition at 20 µM was no less than 75%.

Regarding `CCCCNc1cc(C(=O)O)cc(S(=N)(=O)Nc2nccs2)c1Oc1ccccc1` (centres unmarked) [Compound 90, 3-(butylamino)-4-phenoxy-5-[(thiazol-2-ylamino)sulfonimidoyl]benzoic acid], the inhibition at 2 µM lay within 30 to 50% and the inhibition at 20 µM is no less than 75%. The like results for `CCCCNc1cc(C(=O)O)cc(S(=N)(=O)Nc2ccncc2)c1Oc1ccccc1` (centres unmarked) [Compound 91, 3-(butylamino)-4-phenoxy-5-[(4-pyridylamino)sulfonimidoyl]benzoic acid] were, in that order, 30 to 50% and no less than 75%. `CCCCNc1cc(C(=O)O)cc(S(=N)(=O)NC2CCN(C(C)=O)CC2)c1Oc1ccccc1` (centres unmarked) [Compound 92, 3-[[(1-acetyl-4-piperidyl)amino]sulfonimidoyl]-5-(butylamino)-4-phenoxy-benzoic acid]: the inhibition at 2 µM is 10 to 30% and the inhibition at 20 µM lay within 50 to 75%.
